Read-outs that look alike come from different tables or passages of the source.
Tests used:
[1] = test system: RNA Polymerase II Serine 5 phosphorylation (Rpb1 CTD, downstream substrate of CDK7) in A549 cells; experiment: Imaging-based cellular RNA PolII Ser5 phosphorylation assay in A549 cells; type: cell-based, human; conditions: wild-type CDK7, RNA PolII Ser5 phosphorylation, averaged over all measurements; for IC50: Homo sapiens, A549, A549 cells, read-out: CDK7_A549 Wild-type CDK7 (pIC50) (converted); for CDK7_A549 Wild-type CDK7 (pIC50): A549 cells
How it was run: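 A549 cells, seeded 1000/well in DMEM with 1% FBS and cultured 20 h, were treated with compound for 3 h at 37 °C. Ser5-phospho-Rpb1 CTD detected by immunofluorescence imaging after fixation and methanol permeabilization; IC50 from curve fit normalized to DMSO and 10 μM reference-compound controls.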

[2] = test system: RNA Polymerase II Serine 5 phosphorylation in A549 cells overexpressing CDK7-mutant (C312S); experiment: Imaging-based cellular RNA PolII Ser5 phosphorylation assay in A549 cells overexpressing CDK7-mutant (C312S); type: cell-based, human; conditions: RNA PolII Ser5 phosphorylation, averaged over all measurements; for IC50: Homo sapiens, A549, A549 cells overexpressing CDK7-mutant (C312S), read-out: CDK7_A549 mutant hCDK7(pIC50) (converted); for CDK7_A549 mutant hCDK7(pIC50): A549 cells overexpressing CDK7-mutant (C312S)
How it was run: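 A549 cells overexpressing CDK7 C312S (with endogenous wild-type CDK7) were treated with compound for 3 h at 37 °C in 1% FBS medium. Phospho-Rpb1 CTD Ser5 was immunostained after fixation and imaged. IC50 came from curve fit of % control, normalised to DMSO and 10 μM reference-compound controls.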

[3] = target: CDK7/cyclinH/MAT1 trimeric complex (Homo sapiens, UniProt P50613); experiment: In vitro CDK7 assay, potency of irreversible covalent inhibitors (kinact/KI), coupled PK/LDH ADP readout at 340 nm; conditions: for Ki: CDK7 (20 nM enz.) (KI, μM); for kinact: read-out: CDK7 (20 nM enz.) (kinact, s^−1), 20 nM enzyme
[4] = read-out: CDK7 (20 nM enz.) (kinact/KI, M^−1*s^−1), 20 nM enzyme
[5] = read-out: CDK7 (20 nM enz.) (kobs/[I], M^−1*s^−1), 20 nM enzyme

Sequence of CDK7/cyclinH/MAT1 trimeric complex (P50613 whole entry): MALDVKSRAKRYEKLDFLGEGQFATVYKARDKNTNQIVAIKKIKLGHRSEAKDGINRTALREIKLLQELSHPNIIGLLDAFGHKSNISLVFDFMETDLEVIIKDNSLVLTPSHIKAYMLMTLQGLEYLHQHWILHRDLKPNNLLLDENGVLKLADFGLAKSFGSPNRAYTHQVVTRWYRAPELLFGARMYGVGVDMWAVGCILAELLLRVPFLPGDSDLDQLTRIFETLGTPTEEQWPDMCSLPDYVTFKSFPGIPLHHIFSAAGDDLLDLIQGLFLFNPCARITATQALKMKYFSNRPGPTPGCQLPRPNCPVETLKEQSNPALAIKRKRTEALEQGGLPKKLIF
Sequence of CDK7/cyclinH/MAT1 trimeric complex (P51946 whole entry partner): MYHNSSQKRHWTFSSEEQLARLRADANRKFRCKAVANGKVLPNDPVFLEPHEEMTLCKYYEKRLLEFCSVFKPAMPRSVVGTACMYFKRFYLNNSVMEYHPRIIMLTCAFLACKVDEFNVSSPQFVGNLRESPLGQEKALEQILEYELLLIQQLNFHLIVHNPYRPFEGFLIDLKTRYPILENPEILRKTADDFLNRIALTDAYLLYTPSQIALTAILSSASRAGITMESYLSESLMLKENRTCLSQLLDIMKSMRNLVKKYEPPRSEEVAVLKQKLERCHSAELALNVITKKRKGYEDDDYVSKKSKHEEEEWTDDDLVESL
Sequence of CDK7/cyclinH/MAT1 trimeric complex (P51948 whole entry partner): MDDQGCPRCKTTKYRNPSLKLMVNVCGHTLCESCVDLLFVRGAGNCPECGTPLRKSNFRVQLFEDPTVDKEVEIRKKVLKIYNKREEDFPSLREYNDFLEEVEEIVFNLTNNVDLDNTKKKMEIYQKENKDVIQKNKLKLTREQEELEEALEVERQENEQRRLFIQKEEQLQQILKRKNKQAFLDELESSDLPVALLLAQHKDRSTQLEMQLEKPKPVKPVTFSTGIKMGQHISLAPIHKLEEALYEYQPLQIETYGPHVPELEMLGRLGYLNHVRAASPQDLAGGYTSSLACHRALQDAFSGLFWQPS

Row | Compound | IC50 [1] | IC50 [2] | Ki ([3]; 20 nM enzyme) | kinact [3] | kinact/KI [3, 4] | kinact/KI [3, 5] | CDK7_A549 Wild-type CDK7 (pIC50) [1] | CDK7_A549 mutant hCDK7(pIC50) [2] | CDK7 (20 nM enz.) (kinact/KI, M^−1*s^−1) ([3]; 20 nM enzyme) | CDK7 (20 nM enz.) (kinact, s^−1) ([3]; 20 nM enzyme) | CDK7 (20 nM enz.) (kobs/[I], M^−1*s^−1) ([3]; 20 nM enzyme)
1 | C=CC(=O)N1CC(N2CC(c3ccc4c(c3)Nc3nccc(-c5cnn(C)c5)c3CO4)C2)C1 [Compound 176] | 186 nM | > 10000 nM | 0.0372 µM | 5.38e-05 s⁻¹ | 1440 M⁻¹ s⁻¹ | – | – | – | – | – | –
2 | C=CC(=O)Nc1ccc(-c2ccc3c(c2)Nc2nccc(N4CCOCC4)c2CO3)cn1 [Compound 178] | 22.4 nM | 6760 nM | – | – | – | 1910 M⁻¹ s⁻¹ | – | – | – | – | –
3 | C#Cc1cc(C2CCN(C3CN(C(=O)C=C)C3)CC2)cc2c1OC(C)c1c(N3CCOCC3)ccnc1N2 (centres unmarked) [Compound 181] | ~20.9 nM | > 10000 nM | – | – | – | 864 M⁻¹ s⁻¹ | – | – | – | – | –
4 | C=C(F)C(=O)N1CC(N2CCC(c3ccc4c(c3)Nc3nccc(C5CCOCC5)c3CO4)CC2)C1 [Compound 188] | 1070 nM | > 10000 nM | 0.507 µM | 3.02e-05 s⁻¹ | 59.6 M⁻¹ s⁻¹ | – | – | – | – | – | –
5 | C=CC(=O)N1CC(N2CCC(c3cc(F)c4c(c3)Nc3nccc(-c5cnn(C)c5)c3CO4)CC2)C1 [Compound 189] | – | – | – | – | – | 1440 M⁻¹ s⁻¹ | 7.37 | <5 | – | – | –
6 | C=CC(=O)N1CC(n2cc(-c3cc(C)c4c(c3)Nc3nccc(N5CCOCC5)c3CO4)cn2)C1 [Compound 190] | 33.9 nM | ~8910 nM | – | – | – | 1250 M⁻¹ s⁻¹ | – | – | – | – | –
7 | C=CC(=O)N1CC(N2CC(c3ccc4c(c3)Nc3nccc(-c5cnn(C)c5)c3C(C)O4)C2)C1 (centres unmarked) [Compound 197] | 123 nM | > 10000 nM | 0.134 µM | 7.96e-05 s⁻¹ | 596 M⁻¹ s⁻¹ | – | – | – | – | – | –
8 | C=CC(=O)N1CC(N2CC(c3cc4c(c(C)n3)OCc3c(-c5cnn(C)c5)ccnc3N4)C2)C1 [Compound 198] | 240 nM | > 10000 nM | 0.365 µM | 4.47e-05 s⁻¹ | 122 M⁻¹ s⁻¹ | – | – | – | – | – | –
9 | C=CC(=O)N1CC(N2CC(c3cc4c(c(C)n3)OCc3c(N5CCOCC5)ccnc3N4)C2)C1 [Compound 205] | 93.3 nM | > 10000 nM | 0.119 µM | 4.74e-05 s⁻¹ | – | – | – | – | 399.588 M⁻¹ s⁻¹ | – | –
10 | C=CC(=O)N1CC(N2CC(c3cc(C)c4c(c3)Nc3nccc(N5CCOCC5)c3CO4)C2)C1 [Compound 215] | 64.6 nM | > 10000 nM | – | – | – | 753 M⁻¹ s⁻¹ | – | – | – | – | –
11 | C=CC(=O)N1CC(N2CCC(c3cc4c(c(C)n3)OCc3c(N5CCOCC5)ccnc3N4)CC2)C1 [Compound 217] | – | – | 0.101 µM | – | – | – | 7.15 | <5 | 845.246 M⁻¹ s⁻¹ | 8.548e-05 s⁻¹ | –
12 | C=CC(=O)N1CC[C@H](N2CC(c3cc4c(c(C)n3)OCc3c(N5CCOCC5)ccnc3N4)C2)[C@H](F)C1 [Compound 225] | 126 nM | > 10000 nM | 0.337 µM | 6.24e-05 s⁻¹ | 185 M⁻¹ s⁻¹ | – | – | – | – | – | –
13 | C=CC(=O)N1CC(N2CC(c3cc4c(c(C(F)(F)F)n3)OCc3c(N5CCOCC5)ccnc3N4)C2)C1 [Compound 235] | 70.8 nM | 9550 nM | – | – | – | – | – | – | – | – | 962.5 M⁻¹ s⁻¹
14 | C=CC(=O)N1CC(N2CCN(c3cc4c(c(C)n3)OCc3c(N5CCOCC5)ccnc3N4)CC2)C1 [Compound 237] | 132 nM | > 10000 nM | 0.0731 µM | 3.42e-05 s⁻¹ | 468 M⁻¹ s⁻¹ | – | – | – | – | – | –
15 | C=CC(=O)N1CC(n2cc(-c3cc4c(c(C)n3)OCc3c(N5CCOCC5)ccnc3N4)cn2)C1 [Compound 244] | 72.4 nM | ~7940 nM | 0.0398 µM | 4.37e-05 s⁻¹ | 1100 M⁻¹ s⁻¹ | – | – | – | – | – | –
16 | C=CC(=O)N1CC(N2CCN(c3cc4c(cn3)OCc3c(N5CCOCC5)ccnc3N4)CC2)C1 [Compound 248] | 174 nM | > 10000 nM | 0.307 µM | 8.51e-05 s⁻¹ | 277 M⁻¹ s⁻¹ | – | – | – | – | – | –
17 | C=CC(=O)N1CCC2(CC1)CC(c1cc(F)c3c(c1)Nc1nccc(N4CCOCC4)c1CO3)C2 [Compound 250] | 1820 nM | > 10000 nM | 0.564 µM | 1.06e-05 s⁻¹ | 18.9 M⁻¹ s⁻¹ | – | – | – | – | – | –
18 | C=CC(=O)N1CC(N2CC(c3cc(C#N)c4c(c3)Nc3nccc(N5CCOCC5)c3CO4)C2)C1 [Compound 253] | 50.1 nM | 6310 nM | – | – | – | 989 M⁻¹ s⁻¹ | – | – | – | – | –
19 | C=CC(=O)N1CC(N2CCC(c3ccc4c(c3)Nc3nccc(-c5cnn(C)c5)c3C(C)(C)O4)CC2)C1 [Compound 260] | – | – | 0.0256 µM | – | – | – | 7.1 | <5 | 1810.44 M⁻¹ s⁻¹ | 4.64e-05 s⁻¹ | –
20 | C=CC(=O)N1CC(N2CC(c3cc4c(c(C)n3)OC(C)c3c(N5CCOCC5)ccnc3N4)C2)C1 (centres unmarked) [Compound 264] | ~138 nM | > 10000 nM | 0.0439 µM | 3.44e-05 s⁻¹ | 782 M⁻¹ s⁻¹ | – | – | – | – | – | –
21 | C=CC(=O)N1CC(N2CC(c3cc4c(c(C(F)(F)F)c3)OCc3c(N5CCOCC5)ccnc3N4)C2)C1 [Compound 267] | 23.4 nM | ~7240 nM | – | – | – | 977 M⁻¹ s⁻¹ | – | – | – | – | –
22 | CC#CC(=O)N1CC(N2CCC(c3ccc4c(c3)Nc3nccc(C5CCOCC5)c3CO4)CC2)C1 [Compound 269] | 162 nM | > 10000 nM | 0.103 µM | 4.28e-05 s⁻¹ | 417 M⁻¹ s⁻¹ | – | – | – | – | – | –
23 | C=CC(=O)N1CC(N2CC(c3cc4c(c(C)n3)OCc3c(N5CCOCC5)ccnc3N4)C2)C1 [Compound 273] | – | – | 0.0474 µM | – | – | – | 6.94 | <5 | 945.57 M⁻¹ s⁻¹ | 4.486e-05 s⁻¹ | –
24 | CC#CC(=O)N1CCC(N2CC(c3cc(C)c4c(c3)Nc3nccc(C5CCOCC5)c3CO4)C2)C1 (centres unmarked) [Compound 274] | 174 nM | > 10000 nM | 0.0714 µM | 3.45e-05 s⁻¹ | 483 M⁻¹ s⁻¹ | – | – | – | – | – | –
25 | C=CC(=O)N1CC(N2CCC(c3cc4c(c(-c5ncc[nH]5)c3)OCc3c(N5CCOCC5)ccnc3N4)CC2)C1 [Compound 275] | 87.1 nM | > 10000 nM | – | – | – | 921 M⁻¹ s⁻¹ | – | – | – | – | –
26 | CC#CC(=O)N1CC(c2nc(C)c(-c3cc4c(c(C)n3)OCc3c(N5CCOCC5)ccnc3N4)c(C)n2)C1 [Compound 278] | 166 nM | > 10000 nM | 0.226 µM | 3.13e-05 s⁻¹ | 139 M⁻¹ s⁻¹ | – | – | – | – | – | –
27 | C=CC(=O)N1CC(n2cc(-c3cc(C#N)c4c(c3)Nc3nccc(N5CCOCC5)c3CO4)cn2)C1 [Compound 285] | 19.5 nM | 1860 nM | – | – | – | 964 M⁻¹ s⁻¹ | – | – | – | – | –
28 | C=CC(=O)N1CC(N2CC(c3cc4c(c(C#N)n3)OCc3c(N5CCOCC5)ccnc3N4)C2)C1 [Compound 290] | 295 nM | > 10000 nM | 0.0265 µM | 3.61e-05 s⁻¹ | 1360 M⁻¹ s⁻¹ | – | – | – | – | – | –
29 | C=CC(=O)N1CC(N2CCC(c3cc4c(c(C#N)n3)OCc3c(-c5cnn(C)c5)ccnc3N4)CC2)C1 [Compound 298] | 263 nM | > 10000 nM | 0.0311 µM | 8.92e-05 s⁻¹ | 2870 M⁻¹ s⁻¹ | – | – | – | – | – | –
